The record followed here is PubChem BioAssay (NCI).

Some test systems named below: U251 CNS; SF-539 CNS; A549 NSCLC; NCI-H522 lung; NCI-H460 lung; KM12 colon; NCI/ADR-RES ovarian; K-562 leukemia.
Holding throughout (experiment): NCI tumour cell line growth inhibition, 48 h

Each structure is given as a SMILES string. Values joined by “and” are separate entries in the source; they are usually repeats but may differ in a detail not shown here. Identical values can stand only once.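 Where inhibition never reached the appropriate level, the endpoint shown equals the highest concentration tested. Otherwise, values were interpolated linearly from a five-concentration, 48-hour dose response in 96-well plates. GI50: concentration for 50% inhibition of growth. TGI marks complete inhibition of growth.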 Some results are limits rather than exact numbers.

On to `O=C(Nc1ccc(Cl)cc1)c1ccc([N+](=O)[O-])o1`, for which the GI50 is 1.36 µM in the assay on U251 CNS; 2.22 µM in the assay with SF-539 CNS; 2.64 µM with A549 NSCLC; 0.642 µM with NCI-H522 lung; 2.22 µM in the assay on NCI-H460 lung; 2.35 µM in the assay with KM12 colon. Also, the GI50 with NCI/ADR-RES ovarian was 2.55 µM. For the same compound, the TGI in the assay on U251 CNS came out at 2.87 µM; in the assay with SF-539 CNS it was 4.9 µM; in the assay on A549 NSCLC it was 9.21 µM; in the assay on NCI-H522 lung, 1.76 µM; in the assay on NCI-H460 lung, 5.55 µM; with KM12 colon, 6.38 µM. This compound gave a TGI in the assay on NCI/ADR-RES ovarian of 11.4 µM.
Turning to `CCCCCCCCCCCCCCCCOC(=O)c1c(C)[nH]c(/C=C2\N=C(c3ccc[nH]3)C=C2OC)c1C`, the GI50 was 0.638 µM in the assay with U251 CNS; 2.3 µM in the assay on SF-539 CNS; 0.239 µM with A549 NSCLC; 5.69 µM in the assay with NCI-H522 lung; 0.0429 µM in the assay with NCI-H460 lung; 0.413 µM in the assay with K-562 leukemia. The GI50 with KM12 colon was 0.102 µM; with NCI/ADR-RES ovarian, 0.735 µM. The TGI in the assay with U251 CNS was 7.04 µM; in the assay on SF-539 CNS, 13.6 µM; in the assay with A549 NSCLC, 12.8 µM; with NCI-H522 lung, above 70.1 µM; with NCI-H460 lung, above 100 µM; in the assay with K-562 leukemia, above 100 µM. Moreover, the values for the TGI in the assay on KM12 colon and in the assay on NCI/ADR-RES ovarian were above 100 µM and 19.9 µM, respectively.
On to `COc1ccc(/C(=N\O)c2cc(OC)c(OC)c(OC)c2)c(OC)c1N`, for which the GI50 was 5.17 µM with U251 CNS; 2.89 µM in the assay on SF-539 CNS; 6.26 µM in the assay on A549 NSCLC; 3.3 µM in the assay with NCI-H522 lung; 3.59 µM in the assay on NCI-H460 lung; 1.5 µM with K-562 leukemia. For the same compound, the GI50 in the assay on KM12 colon was 2.11 µM. Besides, the TGI with U251 CNS, with SF-539 CNS, with A549 NSCLC, with NCI-H522 lung, with NCI-H460 lung and in the assay with K-562 leukemia was above 100 µM each time. The compound also showed a TGI with KM12 colon above 100 µM.
`COc1cc2c3c(n(CCCCNC(=O)OCC4c5ccccc5-c5ccccc54)c(=O)c2cc1OC)-c1cc2c(cc1C3=O)OCO2`: the GI50 in the assay on U251 CNS was 11.2 µM; in the assay with SF-539 CNS, 6.42 µM; in the assay on A549 NSCLC it was 17.4 µM; in the assay on NCI-H522 lung, 11.1 µM; in the assay with NCI-H460 lung, 2.56 µM; in the assay on K-562 leukemia it was 3.05 µM. In addition, the GI50 with KM12 colon was 22 µM; in the assay on NCI/ADR-RES ovarian it was 58.1 µM. Besides, the TGI with U251 CNS was 65.3 µM; in the assay on SF-539 CNS, 37.6 µM; with A549 NSCLC, above 100 µM; in the assay with NCI-H522 lung, above 100 µM; in the assay with NCI-H460 lung, 54.2 µM; in the assay with K-562 leukemia, 27.4 µM. Also, the TGI with KM12 colon and with NCI/ADR-RES ovarian was above 100 µM each time.
For `COC(=O)c1oc2c(O)c(OC)c(Br)cc2c1C`, the GI50 in the assay with U251 CNS was 18.2 µM; in the assay with A549 NSCLC, 25 µM; in the assay on NCI-H522 lung it was 37.4 µM; in the assay with NCI-H460 lung, 64 µM; with K-562 leukemia, 34.4 µM; with KM12 colon it was 21.2 µM. For the same compound, the TGI in the assay on U251 CNS was 33.1 µM; in the assay on A549 NSCLC it was 74.1 µM; with NCI-H522 lung it was above 100 µM; in the assay on NCI-H460 lung, above 100 µM; in the assay on K-562 leukemia, above 100 µM; in the assay on KM12 colon, 47.6 µM.
`COc1cc(C(=O)/C=C/c2c(-c3ccc(F)cc3)nc3ncccn23)cc(OC)c1OC`: the GI50 in the assay on U251 CNS was 1.68 µM; with SF-539 CNS, 1.55 µM; in the assay with A549 NSCLC, 3.34 µM; in the assay with NCI-H522 lung it was 2.87 µM; in the assay with K-562 leukemia, 3.03 µM; with KM12 colon it was 1.69 µM. In addition, the GI50 with NCI/ADR-RES ovarian is 1.58 µM. Further, the TGI was 12.9 µM in the assay with U251 CNS; 3.77 µM in the assay with SF-539 CNS; above 100 µM with A549 NSCLC; 10.6 µM with NCI-H522 lung; above 100 µM in the assay on K-562 leukemia; 4.37 µM in the assay on KM12 colon. The compound further showed a TGI in the assay with NCI/ADR-RES ovarian of 5.11 µM.
On to `COc1cc(C2CC(c3ccc(Nc4ccnc5cc(Cl)ccc45)cc3)=NN2C=O)cc(OC)c1OC` (centres undefined), for which the GI50 with U251 CNS is 2.06 µM; in the assay with SF-539 CNS, 2.75 µM; in the assay with A549 NSCLC, 6.9 µM; in the assay with NCI-H460 lung it was 4.42 µM; in the assay with KM12 colon, 5.87 µM; in the assay with NCI/ADR-RES ovarian it was 7.88 µM. Further, the TGI in the assay on U251 CNS is 4.76 µM; in the assay with SF-539 CNS, 6.38 µM; in the assay on A549 NSCLC it was above 100 µM; with NCI-H460 lung it was above 100 µM; with KM12 colon it was above 100 µM; in the assay with NCI/ADR-RES ovarian, above 100 µM.
For `CCOCC(=O)N[C@H]1CCc2cc(OC(=O)COCC)c(OC)c(OC)c2-c2ccc(SC)c(=O)cc21`, the GI50 is 0.0154 µM in the assay with U251 CNS, 0.0126 µM with SF-539 CNS, 0.0279 µM with NCI-H522 lung and 0.0395 µM in the assay on NCI-H460 lung. Besides, the TGI is 0.061 µM and 0.0554 µM in the assay with SF-539 CNS; 0.0389 µM and 0.107 µM in the assay with NCI-H522 lung; 0.0691 µM in the assay on K-562 leukemia; 5.49 µM with NCI/ADR-RES ovarian.
On to `O=C(NCC(=O)N1CC[C@H](NC2CCC(O)(c3ccc(-c4ncccn4)cn3)CC2)C1)c1cccc(C(F)(F)F)c1` (some centres undefined), for which the GI50 with U251 CNS was 91.8 µM; with SF-539 CNS, 96.5 µM; in the assay on A549 NSCLC it was above 100 µM; with NCI-H522 lung, above 100 µM; in the assay with NCI-H460 lung, 86.5 µM; with KM12 colon, above 100 µM. For the same compound, the GI50 with NCI/ADR-RES ovarian was above 100 µM. Moreover, the TGI in the assay with U251 CNS, in the assay with SF-539 CNS, in the assay with A549 NSCLC, in the assay on NCI-H522 lung, with NCI-H460 lung and in the assay on KM12 colon was above 100 µM in each case. This compound had a TGI with NCI/ADR-RES ovarian above 100 µM.
Regarding `CCCCCCCCCCCCSC(=NC)NC`, the GI50 is 1.67 µM in the assay on SF-539 CNS; 2.12 µM in the assay on A549 NSCLC; 1.84 µM in the assay with NCI-H460 lung; 1.95 µM in the assay on K-562 leukemia; 2.06 µM in the assay with NCI/ADR-RES ovarian. In addition, the TGI was determined as 3.14 µM with SF-539 CNS; 4.76 µM in the assay on A549 NSCLC; 3.52 µM in the assay on NCI-H460 lung; 6.35 µM in the assay with K-562 leukemia; 4.53 µM in the assay with NCI/ADR-RES ovarian.
For the compound `CC1CC(C)/C(=N/NC(N)=O)C(C(O)CC2CCC(=O)NC2=O)C1` (centres undefined), the GI50 with U251 CNS is 1.96 µM; in the assay with SF-539 CNS it was 3.07 µM; in the assay with A549 NSCLC, 2.36 µM; in the assay on NCI-H522 lung, 1.7 µM; in the assay on NCI-H460 lung, 4 µM; with KM12 colon it was 3.05 µM. Besides, in the assay on NCI/ADR-RES ovarian, the GI50 was 3.66 µM. Further, the TGI was 91.1 µM in the assay with U251 CNS; 39.8 µM in the assay with SF-539 CNS; 56.7 µM with A549 NSCLC; 18.1 µM with NCI-H522 lung; above 100 µM in the assay with NCI-H460 lung; 42.4 µM in the assay on KM12 colon. In the assay on NCI/ADR-RES ovarian, this compound had a TGI above 100 µM.
